Assay results reported in patent US8426441B2, “Inhibitors of bruton's tyrosine kinase” (Roche Palo Alto LLC, priority 2007, dated 2013).

Columns and labels:
[1] = biological target: T1, Btk enzyme (His-tagged, full-length) (Homo sapiens, UniProt Q06187); assay: Bruton's Tyrosine Kinase (Btk) Inhibition Assay (33P filtration capture); type: biochemical; conditions: 100 μM ATP, 30 μM biotinylated SH2 peptide substrate, 30 min at 30° C.
T1 construct: 5-10 nM Btk enzyme (His-tagged, full-length); His
Description: The assay is a capture of radioactive ^33P phosphorylated product through filtration. The interactions of Btk, biotinylated SH2 peptide substrate (Src homology), and ATP lead to phosphorylation of the peptide substrate. Biotinylated product is bound streptavidin sepharose beads. All bound, radiolabeled products are detected by scintillation counter.
Plates assayed are 96-well polypropylene (Greiner) and 96-well 1.2 μm hydrophilic PVDF filter plates (Millipore). Concentrations reported here are final assay concentrations: 10-100 μM compounds in DMSO (Burdick and Jackson), 5-10 nM Btk enzyme (His-tagged, full-length), 30 μM peptide substrate (Biotin-Aca-AAAEEIYGEI-NH2), 100 μM ATP (Sigma), 8 mM imidazole (Sigma, pH 7.2), 8 mM glycerol-2-phosphate (Sigma), 200 μM EGTA (Roche Diagnostics), 1 mM MnCl2 (Sigma), 20 mM MgCl2 (Sigma), 0.1 mg/ml BSA (Sigma), 2 mM DTT (Sigma), 1 μCi ^33P ATP (Amersham), 20% streptavidin sepharose beads (Amersham), 50 mM EDTA (Gibco), 2 M NaCl (Gibco), 2 M NaCl w/1% phosphoric acid (Gibco), microscint-20 (Perkin Elmer).
IC50 determinations are calculated from 10 data points per compound utilizing data produced from a standard 96-well plate assay template. One control compound and seven unknown inhibitors were tested on each plate and each plate was run twice. Typically, compounds were diluted in half-log starting at 100 μM and ending at 3 nM. The control compound was staurosporine. Background was counted in the absence of peptide substrate. Total activity was determined in the presence of peptide substrate. The following protocol was used to determine Btk inhibition.
1) Sample preparation: The test compounds were diluted at half-log increments in assay buffer (imidazole, glycerol-2-phosphate, EGTA, MnCl2, MgCl2, BSA).
2) Bead preparation • a.) rinse beads by centrifuging at 500 g • b.) reconstitute the beads with PBS and EDTA to produce a 20% bead slurry
3) Pre-incubate reaction mix without substrate (assay buffer, DTT, ATP, P ATP) and mix with substrate (assay buffer, DTT, ATP, ^33P ATP, peptide substrate) 30° C. for 15 min.
4) To start assay, pre-incubate 10 μL Btk in enzyme buffer (imidazole, glycerol-2-phosphate, BSA) and 10 μL of test compounds for 10 min at RT.
5) Add 30 μL reaction mixture without or with substrate to Btk and compounds.
6) Incubate 50 μL total assay mix for 30 min at 30° C.
7) Transfer 40 μL of assay to 150 μL bead slurry in filter plate to stop reaction.
8) Wash filter plate after 30 min, with following steps • a. 3×250 μL NaCl • b. 3×250 μL NaCl containing 1% phosphoric acid • c. 1×250 μL H2O
9) Dry plate for 1 h at 65° C. or overnight at RT
10) Add 50 μL microscint-20 and count ^33P cpm on scintillation counter.
Calculate percent activity from raw data in cpm percent activity=(sample−bkg)/(total activity−bkg)×100
Calculate IC50 from percent activity, using one-site dose response sigmoidal model y=A+((B−A)/(1+((x/C)^D)))) • x=cmpd conc, y=% activity, A=min, B=max, C=IC50, D=1 (hill slope)

T1 sequence (Q06187 whole entry): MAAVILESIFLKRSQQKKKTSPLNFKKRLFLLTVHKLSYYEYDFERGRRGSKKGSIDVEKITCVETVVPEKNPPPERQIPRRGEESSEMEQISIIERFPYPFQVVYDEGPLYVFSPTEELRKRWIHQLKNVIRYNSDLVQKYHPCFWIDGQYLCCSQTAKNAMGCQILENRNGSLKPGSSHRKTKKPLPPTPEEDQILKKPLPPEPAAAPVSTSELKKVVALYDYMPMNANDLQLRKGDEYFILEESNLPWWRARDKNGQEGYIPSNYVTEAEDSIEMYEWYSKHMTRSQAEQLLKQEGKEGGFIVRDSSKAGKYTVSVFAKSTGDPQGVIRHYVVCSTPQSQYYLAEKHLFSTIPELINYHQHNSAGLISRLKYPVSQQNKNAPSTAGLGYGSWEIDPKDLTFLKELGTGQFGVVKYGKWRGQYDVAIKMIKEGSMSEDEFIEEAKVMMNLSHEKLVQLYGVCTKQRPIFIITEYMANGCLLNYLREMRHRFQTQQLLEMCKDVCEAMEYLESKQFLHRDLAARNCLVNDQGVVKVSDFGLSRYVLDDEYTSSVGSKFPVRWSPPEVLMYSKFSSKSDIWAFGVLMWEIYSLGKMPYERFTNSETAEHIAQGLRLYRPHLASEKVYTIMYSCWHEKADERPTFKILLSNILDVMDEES

Row | Structure (SMILES) | IC50 [1] [nM] | melting point [°C]
1 | Cn1ccc(Nc2cc(-c3cccc(NC(=O)c4ccc(C5CC5)cc4)c3CO)nn3ccnc23)n1 [Example I-45, 4-Cyclopropyl-N-{2-hydroxymethyl-3-[8-(1-methyl-1H-pyrazol-3-ylamino)-imidazo[1,2-b]pyridazin-6-yl]-phenyl}-benzamide] | 15 | –
2 | O=C(Nc1cccc(-c2cc(Nc3ccc(C(=O)N4CCOCC4)cn3)c3nccn3n2)c1CO)c1ccc(C2CC2)cc1 [Example I-43, 4-Cyclopropyl-N-(2-hydroxymethyl-3-{8-[5-(morpholine-4-carbonyl)-pyridin-2-ylamino]-imidazo[1,2-b]pyridazin-6-yl}-phenyl)-benzamide] | 13 | –
3 | Cc1c(NC(=O)NC2CCC(S(C)(=O)=O)CC2)cccc1-c1cc(Nc2ccc(C(=O)N3CCOCC3)cn2)c2nccn2c1 (centres unmarked) [Example I-218, 1-(4-Methanesulfonyl-cyclohexyl)-3-(2-methyl-3-{8-[5-(morpholine-4-carbonyl)-pyridin-2-ylamino]-imidazo[1,2-a]pyridin-6-yl}-phenyl)-urea] | 10 | –
4 | CNC(=O)Nc1cc(-c2cccc(NC(=O)c3ccc(C(C)(C)C)cc3)c2C)nn2ccnc12 [Example I-8, 4-tert-Butyl-N-{2-methyl-3-[8-(3-methyl-ureido)-imidazo[1,2-b]pyridazin-6-yl]-phenyl}-benzamide] | 10 | 163 to 165
5 | CCC(=O)Nc1cc(-c2cccc(NC(=O)c3ccc(C(C)(C)C)cc3)c2C)cn2ccnc12 [Example I-54, 4-tert-Butyl-N-[2-methyl-3-(8-propionylamino-imidazo[1,2-a]pyridin-6-yl)-phenyl]-benzamide] | – | 99 to 100
6 | CCOC(=O)c1ccc(Nc2cc(-c3ccccc3)cn3ccnc23)nc1 [Example I-47, 6-(6-Phenyl-imidazo[1,2-a]pyridin-8-ylamino)-nicotinic acid ethyl ester] | – | 141.5 to 142.5

Further lines, results first:

Row | IC50 [1] [nM] | melting point [°C] | Structure (SMILES)
7 | 19 | 183 to 184 | Cc1c(NC(=O)c2ccc(C(C)(C)C)cc2)cccc1-c1cc(NC(=O)NCCO)c2nccn2n1 [Example I-11, 4-tert-Butyl-N-(3-{8-[3-(2-hydroxy-ethyl)-ureido]-imidazo[1,2-b]pyridazin-6-yl}-2-methyl-phenyl)-benzamide]
8 | 22 | 181 to 183 | CCNC(=O)Nc1cc(-c2cccc(NC(=O)c3ccc(C(C)(C)C)cc3)c2C)nn2ccnc12 [Example I-7, 4-tert-Butyl-N-{3-[8-(3-ethyl-ureido)-imidazo[1,2-b]pyridazin-6-yl]-2-methyl-phenyl}-benzamide]
9 | 13 | – | CCNC(=O)Nc1cc(-c2cccc(NC(=O)c3ccc(C(C)(C)C)cc3)c2C)cn2ccnc12 [Example I-53, 4-tert-Butyl-N-{3-[8-(3-ethyl-ureido)-imidazo[1,2-a]pyridin-6-yl]-2-methyl-phenyl}-benzamide]
10 | 18 | 182.7 to 199.7 | Cc1c(NC(=O)c2ccc(C(C)(C)C)cc2)cccc1-c1cc(NC(=O)NCCCN(C)C)c2nccn2c1 [Example I-77, 4-tert-Butyl-N-(3-{8-[3-(3-dimethylamino-propyl)-ureido]-imidazo[1,2-a]pyridin-6-yl}-2-methyl-phenyl)-benzamide]
11 | – | 153.7 to 164.4 | Cc1c(NC(=O)c2ccc(N(C)C)cc2)cccc1-c1cc(NC(=O)NCCO)c2nccn2c1 [Example I-64, 4-Dimethylamino-N-(3-{8-[3-(2-hydroxy-ethyl)-ureido]-imidazo[1,2-a]pyridin-6-yl}-2-methyl-phenyl)-benzamide]
12 | 24 | 148 to 149 | CNC(=O)Nc1cc(-c2cccc(NC(=O)c3ccc(C(C)(C)C)cc3)c2C)cn2ccnc12 [Example I-56, 4-tert-Butyl-N-{2-methyl-3-[8-(3-methyl-ureido)-imidazo[1,2-a]pyridin-6-yl]-phenyl}-benzamide]
